Where two headings read alike, the source gives them in different places.
Columns and labels:
Format in all cases: cell-based
[1] = system: Epimastigote forms of T. cruzi (Y strain); assay: Trypanocidal effect on epimastigote forms (counting in Neubauer hemocytometer, Combination Index method); conditions: Trypanosoma cruzi
Description: (§1) All of the experiments were performed using the Y strain of T. cruzi. Pereira et al., Folia Clin. Biol. 1953, 20, 191-208. Epimastigote forms were axenically maintained at 28° C. with weekly transfers in liver infusion tryptose (LIT) medium supplemented with 10% heat-inactivated FBS, pH 7.4. Camargo, Rev. Inst. Med. Trop. São Paulo. 1964, 6, 93-100. Trypomastigote and amastigote forms were obtained from the previously infected monolayers of LLCMK2 cells (epithelial cells of monkey kidney [Macaca mulatta]; CCL-7; American Type Culture Collection, Rockville, MD, USA) in DMEM supplemented with 2 mM L-glutamine and 10% FBS, buffered with sodium bicarbonate in a 5% CO2 air mixture at 37° C. […] The number of epimastigote forms was determined by counting in a Neubauer hemocytometer after 96 hrs. The data were calculated and mathematically expressed as a Combination Index: CI=(IC50 VK3 combined/IC50 VK3 alone)+(IC50 VC combined/IC50 VC alone) for epimastigotes and amastigotes and CI=(EC50 VK3 combined/EC50 VK3 alone)+(EC50 VC combined/EC50 VC alone) for trypomastigotes. […] The data were also graphically expressed as isobolograms by plotting concentrations of vitamins that alone or in combination induced activity against 50% of the forms of the parasite.

[2] = system: Trypomastigote forms of T. cruzi (Y strain); assay: Trypanocidal effect on trypomastigote forms (viability by mobility, Pizzi-Brener method, Combination Index method); conditions: Trypanosoma cruzi
Description: as §1, with “After incubation, the viability” for “The number”, “the parasites” for “epimastigote forms”, “examining mobility under” for “counting in”, “light microscope (Olympus CX31) using the Pizzi-Brener method. […]” for “Neubauer hemocytometer after 96 hrs.”

[3] = system: intracellular amastigote forms of T. cruzi (Y strain) in LLCMK2 cells; assay: Activity against intracellular amastigote forms in LLCMK2 cells (survival index, Combination Index method); conditions: Trypanosoma cruzi
Description: All of the experiments were performed using the Y strain of T. cruzi. Pereira et al., Folia Clin. Biol. 1953, 20, 191-208. Epimastigote forms were axenically maintained at 28° C. with weekly transfers in liver infusion tryptose (LIT) medium supplemented with 10% heat-inactivated FBS, pH 7.4. Camargo, Rev. Inst. Med. Trop. São Paulo. 1964, 6, 93-100. Trypomastigote and amastigote forms were obtained from the previously infected monolayers of LLCMK2 cells (epithelial cells of monkey kidney [Macaca mulatta]; CCL-7; American Type Culture Collection, Rockville, MD, USA) in DMEM supplemented with 2 mM L-glutamine and 10% FBS, buffered with sodium bicarbonate in a 5% CO2 air mixture at 37° C. […] The number of infected cells and amastigotes was determined by randomly counting 200 cells. The results were calculated as the survival index, which was obtained by multiplying the percentage of infected cells by the number of amastigotes per infected LLCMK2 cell and then determining the percentage of inhibition. […] The data were calculated and mathematically expressed as a Combination Index: CI=(IC50 VK3 combined/IC50 VK3 alone)+(IC50 VC combined/IC50 VC alone) for epimastigotes and amastigotes and CI=(EC50 VK3 combined/EC50 VK3 alone)+(EC50 VC combined/EC50 VC alone) for trypomastigotes. […]

[4] = system: parasitic forms of Trypanosoma cruzi; assay: Total ROS production (H2DCFDA labeling); conditions: H2O2 20.0 μM
Description: FIGS. 2A, 2B, and 2C show the effects of VC and VK3 on the total reactive oxygen species (ROS) production in parasitic forms of Trypanosoma cruzi, where the parasites were treated with VC and VK3, alone and combined, for 24 hrs using H2DCFDA labeling; and where epimastigote forms (FIG. 2A) were treated with 0.61 mM VC and 1.90 μM VK3, alone and combined; trypomastigote forms (FIG. 2B) were treated with 0.20 mM VC and 0.35 μM VK3, alone and combined; and amastigote forms (FIG. 2C) were treated with 0.18 mM VC and 0.30 μM VK3, alone and combined. H2O2 was used as a positive control. Total ROS were measured as an increase in fluorescence that is caused by the conversion of nonfluorescent dye to fluorescent DCF. The results are expressed as the mean fluorescence (in arbitrary units [A.U.]±SE) of at least three independent experiments. The symbol * indicates significant differences compared with the control group (untreated cells; p≤0.05). The production of total reactive oxygen species (total ROS) was evaluated in parasitic forms after exposure to VC and VK3 using the probe H2DCFDA. Epimastigote forms (1×10^6 parasites/mL) were evaluated after exposure to 0.61 mM VC and 1.90 μM VK3, alone and in combination, for 24 hrs at 28° C. Trypomastigote forms (1×10^7 parasites/mL) were evaluated after exposure to 0.20 mM VC and 0.35 μM VK3, alone and in combination, for 24 hrs at 37° C. in a 5% CO2 atmosphere. Amastigote forms (1×10^7 parasites/mL) were evaluated after exposure to 0.18 mM VC and 0.30 μM VK3, alone and in combination, for 24 hrs at 37° C. in a 5% CO2 atmosphere. Hydrogen peroxide (H2O2; 20.0 μM) was used as a positive control. Afterward, the parasites were centrifuged, washed, and resuspended in PBS. Parasites were loaded with 10.0 μM of the permeant probe H2DCFDA in the dark for 45 min.

Structure (SMILES): O=C1O[C@H]([C@@H](O)CO)C(O)=C1O [VC, L-ascorbic acid]
- IC50 ([1]; combined with 1.90 μM VK3, read-out: VC concentration in the combination with synergistic effect on 50% of the parasites (IC50 VC combined)): 610 µM
- EC50 ([2]; combined with 0.35 μM VK3, read-out: VC concentration in the combination with synergistic effect on 50% of the parasites (EC50 VC combined)): 200 µM
- IC50 ([3]; LLC-MK2, combined with 0.30 μM VK3, read-out: VC concentration in the combination with synergistic effect on 50% of the parasites (IC50 VC combined)): 180 µM

Structure (SMILES): CC1=CC(=O)c2ccccc2C1=O [VK3, 2-methyl-1,4-naphthalenedione]
- IC50 ([1]; .61 mM VC, read-out: VK3 concentration in the combination with synergistic effect on 50% of the parasites (IC50 VK3 combined)): 1.9 µM
- EC50 ([2]; combined with 0.20 mM VC, read-out: VK3 concentration in the combination with synergistic effect on 50% of the parasites (EC50 VK3 combined)): 0.35 µM
- IC50 ([3]; LLC-MK2, combined with 0.18 mM VC, read-out: VK3 concentration in the combination with synergistic effect on 50% of the parasites (IC50 VK3 combined)): 0.3 µM

Structure (SMILES): OO [H2O2, Hydrogen peroxide]
- increase in ROS production (positive control) ([4]; amastigotes): 60%
- increase in ROS production (positive control) ([4]; epimastigotes): 69%
- increase in ROS production (positive control) ([4]; trypomastigotes): 77%

— US11998523B2, “Ascorbic acid and quinone compounds for treating Chagas disease” (IC-MedTech Corp., priority 2016, dated 2024)
